The values that follow come from ChEMBL document CHEMBL2331557, “Antidepressant abietane diterpenoids from Chinese eaglewood” (J Nat Prod, 2013).

Test system in one assay: not listed separately
In words: Inhibition of [3H]NE reuptake at NET in rat brain synaptosomes. It is filed as subcellular.
By IC50 is commonly meant the concentration at which inhibition is half-maximal. Consider `CC(C)[C@@]1(O)C=C2[C@H](O)C[C@H]3[C@](C)(C(=O)O)CCC[C@]3(C)[C@@]2(O)CC1` [AQUILARABIETIC ACID A], for which the IC50 amounted to 910 nM.

The target of the next assay is Sodium-dependent serotonin transporter (Rattus norvegicus, UniProt P31652). The assay is described as follows: Inhibition of [3H]5-HT reuptake at SERT in rat brain synaptosomes. It is filed as subcellular.
Chain of Sodium-dependent serotonin transporter (P31652 whole entry): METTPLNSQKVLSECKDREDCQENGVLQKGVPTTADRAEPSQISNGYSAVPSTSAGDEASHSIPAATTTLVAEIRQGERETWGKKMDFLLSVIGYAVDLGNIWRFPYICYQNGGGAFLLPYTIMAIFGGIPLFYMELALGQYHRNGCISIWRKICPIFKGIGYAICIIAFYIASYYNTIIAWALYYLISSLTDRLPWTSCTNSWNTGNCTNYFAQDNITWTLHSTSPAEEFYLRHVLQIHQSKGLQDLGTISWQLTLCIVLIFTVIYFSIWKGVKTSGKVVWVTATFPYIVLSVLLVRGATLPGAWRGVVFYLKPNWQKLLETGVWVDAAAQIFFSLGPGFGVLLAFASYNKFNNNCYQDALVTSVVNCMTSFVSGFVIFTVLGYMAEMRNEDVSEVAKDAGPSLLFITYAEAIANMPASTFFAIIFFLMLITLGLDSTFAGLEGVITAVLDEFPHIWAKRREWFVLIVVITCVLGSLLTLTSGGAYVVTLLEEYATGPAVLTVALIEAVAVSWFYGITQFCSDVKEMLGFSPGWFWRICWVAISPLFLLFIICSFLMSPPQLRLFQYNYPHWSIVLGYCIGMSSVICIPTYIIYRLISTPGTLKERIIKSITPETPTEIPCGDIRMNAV
With `CC(C)[C@@]1(O)C=C2[C@H](O)C[C@@H]3[C@](C)(CCC[C@@]3(C)C(=O)O)[C@H]2C[C@@H]1O` [AQUILARABIETIC ACID B], the half-maximal inhibitory concentration (IC50) amounted to 3200 nM.

The species named for a further assay is Rattus norvegicus. In words: Inhibition of [3H]NE reuptake at NET in rat brain synaptosomes at 10 uM. It is filed as subcellular.
As usually defined, the inhibition is the drop in the measured response relative to a control, in per cent. Read a low inhibition as a response near the control. The compound `CC(C)[C@]1(O)C=C2[C@H](O)C[C@@H]3[C@](C)(CCC[C@@]3(C)C(=O)O)[C@H]2C[C@H]1O` showed an inhibition of 34.4%.
Consider `C=C(C)c1ccc2c(c1)[C@H](O)C[C@H]1[C@](C)(C(=O)O)CCC[C@]21C`, for which the inhibition was determined as 73.8%.
The same measure, in the same setting: under `CC(C)(O)[C@]1(O)CCC2=C(C(=O)C[C@H]3[C@](C)(C(=O)O)CCC[C@]23C)[C@H]1O` stands 0%; under `CC(C)[C@@]1(O)C=C2[C@H](O)C[C@@H]3[C@](C)(CCC[C@@]3(C)C(=O)O)[C@H]2C[C@@H]1O` [AQUILARABIETIC ACID B], 39.1%.
On to `COC(C)(C)c1ccc2c(c1)[C@H](O)C[C@H]1[C@](C)(C(=O)O)CCC[C@]21C`, for which the inhibition stood at 70.4%.
Same read-out and setting: the figure for `CC(C)[C@@]1(O)C=C2[C@H](O)C[C@H]3[C@](C)(C(=O)O)CCC[C@]3(C)[C@@]2(O)CC1` [AQUILARABIETIC ACID A] is 81.8%; for `CC(C)[C@@]12C=C3[C@H](O)C[C@@H]4[C@](C)(CCC[C@@]4(C)C(=O)O)[C@H]3C[C@@H]1OC(C)(C)O2` it is 37.6%; for `C[C@]12CCC[C@@](C)(C(=O)O)[C@@H]1CC(=O)C1CC(=O)CC[C@@H]12` (some centres undefined) it is 18.9%.
Still for that read-out and setting: under `CC(C)[C@@]12CC[C@H]3C(=C[C@@H]4OC(=O)[C@]5(C)CCC[C@@]3(C)[C@@H]45)[C@@H]1O2` stands 8.1%.
Still for that read-out and setting: under `CCO[C@H]1C[C@H]2C(=CC[C@@H]3[C@]2(C)CCC[C@@]3(C)C(=O)O)C=C1C(C)C` stands 13.4%; under `CNCC[C@H](Oc1cccc2ccccc12)c1cccs1`, 81.4%.
`CC(C)[C@]1(O)CC[C@H]2C(=C[C@H](O)[C@@H]3[C@]2(C)CCC[C@@]3(C)C(=O)O)[C@H]1O`: the inhibition stood at 37.2%.
